# Like-named read-outs stand apart in the source and are kept apart here.
# How the values were obtained:
# [1] = type: physicochemical; conditions: 50° C., nitrogen atmosphere; for content ratio, 2 hours elapsed / content ratio, 4 hours elapsed / content ratio, 6 hours elapsed / content ratio, 10 hours elapsed: GC with internal standard; for content ratio, 0 hour: content immediately after temperature rise defined as 100%
# Protocol: 50 mL of each of SAL and acrolein was charged in three-necked flask, and the contents were subjected to temperature rise to 50° C. in a nitrogen atmosphere. On the occasion when the content of each of SAL and acrolein immediately after the temperature rise was defined as 100%, a change of the content ratio was observed according to the calibration curve method by means of gas chromatography with an internal standard.
# Analysis instrument: GC-14A (available from Shimadzu Corporation) Detector: FID (hydrogen flame ionization detector)
# Column used: DB-1701 (length: 50 m, film thickness: 1 pn, inner diameter: 0.32 mm) (available from Agilent Technologies)
# Analysis conditions: Injection temperature: 250° C., detection temperature: 250° C.
# Temperature rise conditions: 70° C.→(temperature rise at 5° C./min)→250° C.
# Internal standard substance: Diglyme (diethylene glycol dimethyl ether)
# Rat = conditions: cited from earlier work
# [2] = Removal test of iron sulfide; conditions: for time elapsed until iron sulfide was dissolved and the reaction solution became colorless transparent: 1.5 mmol aldehyde, 0.5 mmol iron sulfide in 500 mL water, 50° C., 500 rpm
# [3] = type: physicochemical; conditions: pH 1.7
# Protocol: Each of SAL and acrolein was dissolved in 0.5 mol/L of phosphoric acid buffer solutions having a pH different from each other, thereby preparing 0.1 wt % solutions. 50 mL of each of the solutions was charged in a sample vial in a nitrogen atmosphere and stored at 23±2° C. On the occasion when the content of each of SAL and acrolein at the time of preparation was defined as 100%, a change of the content ratio was observed according to the absolute calibration curve by means of high-performance liquid chromatography analysis.
# pH 1.7: 4.9 g of 75% phosphoric acid and 7.8 g of sodium dihydrogen phosphate dihydrate were dissolved in 200 mL of distilled water.
# pH 6.2: 7.8 g of sodium dihydrogen phosphate dihydrate and 7.1 g of disodium hydrogen phosphate were dissolved in 200 mL of distilled water.
# pH 8.1: 0.3 g of sodium dihydrogen phosphate dihydrate and 13.9 g of disodium hydrogen phosphate were dissolved in 200 mL of distilled water.
# Analysis instrument: Prominence System (available from Shimadzu Corporation)
# Column used: Cadenza CD-C18 (length: […], inner diameter: 4.6 mm)
# Developing solution: H2O/MeOH=45/55 (volume ratio), H3PO4=1 mol/L
# [4] = upper respiratory tract; cited from earlier work
Compound,"content ratio, 2 hours elapsed [1]","content ratio, 4 hours elapsed [1]","content ratio, 6 hours elapsed [1]","content ratio, 10 hours elapsed [1]","content ratio, 0 hour [1]",ratio lost after elapsing 10 hours ([1]; acrolein contained hydroquinone as a stabilizer),"Acute toxicity, Rat LD50 (Rat; Rat)",time elapsed until iron sulfide was dissolved and the reaction solution became colorless transparent [2],pH stability as compared with acrolein [3],"Acute toxicity, Rat LD50 (Rat; rat, in vivo)",GHS Classification (under Permissible Exposure Limit) [4],iron sulfide removal ability ([2]; compared with acrolein)
"C=CC=O [Acrolein, acrolein, reference compound]",99.5%,98.3%,98.1%,96.6%,100.0%,3.4%,Rat LD50: 42 mg/kg,4 h,,,,
"CC(C)=CCCC(C)=CC=O [Citral, 3,7-dimethyl-2,6-octadienal]",,,,,,,,7 h,,,,
"CC(C)=CC=O [SAL, 3-methyl-2-butenal]",100.0%,100.0%,100.0%,99.9%,100.0%,,,4 h,extremely high in the pH stability as compared with acrolein,Rat LD50: 690 mg/kg,GHS Classification; Section 1 (upper,equivalent to acrolein

# Reference: patent US20190241822A1, “COMPOSITION FOR REMOVING IRON SULFIDE” (KURARAY CO., LTD., priority 2016, published 2019)
